Measured values reported in US20060211671A1, “Estrogen receptors” (priority 2001, published 2006).
“Also recorded” adds a separate entry of the source.

Legend:
[1] = test system: ovariectomized (ovx) mice; test: Effects of estrogen exposure on gonadal fat in ovariectomized WT, ERKO, BERKO and DERKO mice; assay type: in vivo; conditions: for gonadal fat mass, WT mice: ovx WT mice
Text: Male double heterozygous (ERα^+/−β^+/−) mice were mated with female double heterozygous (ERα^+/−β^+/−) mice, resulting in ERα^+/+β^+/+ wildtype (WT); ERα^−/−β^+/+=ERKO, ERα^+/+β^−/−=BERKO and ERα^−/−β^−/−=DERKO offsprings (Vidal O et al (2000) Proc Natl Sci USA, 97, 5474). The diet, housing and genetic background was as previously described in Vidal O et al (2000) supra. In the estrogen exposure experiments all mice were ovariectomized. Ovaries were removed after a flank incision and the incisions were closed with metallic clips. Mice were left to recover for four days after ovariectomy before start of experiments. After recovery mice were injected s.c with 2.3 μg/mouse/day of 17β-estradiol benzoate (Sigma, St Louis, Mo., USA) for 5 days/week during three weeks time. Control mice received injections of vehicle oil (olive oil, Apoteksbolaget, Göteborg, Sweden).
Ovariectomized (ovx) mice, lacking one or both of the two known ERs, were given estrogen and the effects on gonadal fat was studied. The effects of estrogen in mice with both ERα and ERβ inactivated (DERKO) were compared with the effects of estrogen in wild type (WT) mice.
In Table 2, the left part describes the effects of estrogen on fat in ovx wild type (WT) and DERKO mice. Three months old ovx mice were treated for three weeks with 2.3 μg/mouse/day of 17β-estradiol 5 days/week or olive oil as control (=vehicle). n=7 for WT vehicle, n=7 for WT estrogen, n=7 for DERKO vehicle, n=8 for DERKO estrogen. Values are given as means±SEM and expressed as % increase over vehicle treated animal. **=p<0.01 compared with vehicle treated mice. ++=p<0.01 effect of estrogen in DERKO compared with the effect of estrogen in WT, Student t-test. The right part of Table 2 describes the calculation of estrogen receptor α/β dependent and independent effects of estrogen. The effects of estrogen in WT and DERKO mice, as described in the left part of the table, were used for the calculation of the proportion of ERα/β dependent and independent effects of estrogen. The values are given as % of the total effect seen in WT mice.

[2] = test system: orx male rats; conditions: cited from earlier work
[3] = calculated from effects in WT and DERKO mice, % of the total effect seen in WT mice

Molecule: 17β-estradiol benzoate [Estrogen]
- ERα/β Dependent effect of estrogen on Fat Weight [1, 3]: 93%
- ERα/β Independent effect of estrogen on Fat Weight [1, 3]: 7%
- gonadal fat mass, BERKO mice ([1]; ovx BERKO mice, estrogen treatment, result in words (FIG. 6)): reduced; also recorded: hyperresponsiveness
- gonadal fat mass, DERKO mice ([1]; ovx DERKO mice, estrogen treatment, result in words (FIG. 6)): not
- Effect of Estrogen (%) on Fat Weight, DERKO ([1]; ovx DERKO mice, three months old, 2.3 μg/mouse/day s.c. 5 days/week for three weeks, mean±SEM, % increase over vehicle treated animal): −2.0 ± 5.2++ %
- gonadal fat mass, WT mice ([1]; estrogen treatment, result in words (FIG. 6)): reduction of gonadal fat mass
- gonadal fat mass, WT mice ([1]; estrogen treatment, result in words (FIG. 6), listed as estrogen): reduced

Molecule: Oc1ccc2c(c1)CC[C@H](c1ccccc1)[C@@H]2c1ccc(OCCN2CCCC2)cc1 [lasofoxifene]
- body weight [2]: decreased
- food intake [2]: decreased
- total serum cholesterol [2]: decreased
